Measured values: ChEMBL document CHEMBL1124634, “Synthesis and antirhinovirus activity of 6-(dimethylamino)-2-(trifluoromethyl)-9-(substituted benzyl)-9H-purines” (J Med Chem, 1989)

What was measured:
[1] = system: Human rhinovirus sp.; test: Antiviral activity against rhinoviral-1B serotype in a plaque inhibition assay using monolayers of M-HeLa cells; assay type: functional, organism-based
[2] = system: Human rhinovirus sp.; test: Percent inhibitory activity at 8 uM against rhinoviral 13 serotype in a plaque inhibition assay using monolayers of M-HeLa cells; assay type: functional
[3] = system: Human rhinovirus sp.; test: Antiviral activity against rhinoviral 9 serotype in a plaque inhibition assay using monolayers of M-HeLa cells; assay type: functional, organism-based
[4] = system: Human rhinovirus sp.; test: Antiviral activity against rhinoviral-1A serotype in a plaque inhibition assay using monolayers of M-HeLa cells; assay type: functional, organism-based
[5] = system: Human rhinovirus sp.; test: Antiviral activity against rhinoviral 15 serotype in a plaque inhibition assay using monolayers of M-HeLa cells; assay type: functional, organism-based
[6] = system: Human rhinovirus sp.; test: Antiviral activity against rhinoviral 12 serotype in a plaque inhibition assay using monolayers of M-HeLa cells; assay type: functional, organism-based
[7] = system: Human rhinovirus sp.; test: Antiviral activity against rhinoviral-18 serotype in a plaque inhibition assay using monolayers of M-HeLa cells; assay type: functional, organism-based
[8] = system: Human rhinovirus sp.; test: Antiviral activity against rhinoviral 31 serotype in a plaque inhibition assay using monolayers of M-HeLa cells; assay type: functional, organism-based
[9] = system: Human rhinovirus sp.; test: Antiviral activity against rhinoviral 16 serotype in a plaque inhibition assay using monolayers of M-HeLa cells; assay type: functional, organism-based
[10] = system: Human rhinovirus sp.; test: Antiviral activity against rhinoviral 4 serotype in a plaque inhibition assay using monolayers of M-HeLa cells; assay type: functional, organism-based
[11] = system: Human rhinovirus sp.; test: Antiviral activity against rhinoviral 5 serotype in a plaque inhibition assay using monolayers of M-HeLa cells; assay type: functional, organism-based
[12] = system: Human rhinovirus sp.; test: Percent inhibitory activity at 8 uM against rhinoviral 3 serotype in a plaque inhibition assay using monolayers of M-HeLa cells; assay type: functional
[13] = system: Human rhinovirus sp.; test: Antiviral activity against rhinoviral 8 serotype in a plaque inhibition assay using monolayers of M-HeLa cells; assay type: functional, organism-based
[14] = system: Human rhinovirus sp.; test: Antiviral activity against rhinoviral 29 serotype in a plaque inhibition assay using monolayers of M-HeLa cells; assay type: functional, organism-based
[15] = system: Human rhinovirus sp.; test: Percent inhibitory activity at 8 uM against rhinoviral 21 serotype in a plaque inhibition assay using monolayers of M-HeLa cells; assay type: functional
[16] = system: Human rhinovirus sp.; test: Antiviral activity against rhinoviral 14 serotype in a plaque inhibition assay using monolayers of M-HeLa cells; assay type: functional, organism-based
[17] = system: Human rhinovirus sp.; test: Antiviral activity against rhinoviral-19 serotype in a plaque inhibition assay using monolayers of M-HeLa cells; assay type: functional, organism-based
[18] = system: Human rhinovirus sp.; test: Antiviral activity against rhinoviral 2 serotype in a plaque inhibition assay using monolayers of M-HeLa cells; assay type: functional, organism-based
[19] = system: Human rhinovirus sp.; test: Antiviral activity against rhinoviral 30 serotype in a plaque inhibition assay using monolayers of M-HeLa cells; assay type: functional, organism-based
[20] = system: Human rhinovirus sp.; test: Percent inhibitory activity at 8 uM against rhinoviral 15 serotype in a plaque inhibition assay using monolayers of M-HeLa cells; assay type: functional
[21] = system: Human rhinovirus sp.; test: Percent inhibitory activity at 8 uM against rhinoviral 19s erotype in a plaque inhibition assay using monolayers of M-HeLa cells; assay type: functional
[22] = system: Human rhinovirus sp.; test: Percent inhibitory activity at 8 uM against rhinoviral 30 serotype in a plaque inhibition assay using monolayers of M-HeLa cells; assay type: functional
[23] = system: Human rhinovirus sp.; test: Percent inhibitory activity at 8 uM against rhinoviral 29 serotype in a plaque inhibition assay using monolayers of M-HeLa cells; assay type: functional
[24] = system: Human rhinovirus sp.; test: Antiviral activity against rhinoviral 19 serotype in a plaque inhibition assay using monolayers of M-HeLa cells; assay type: functional, organism-based
[25] = system: Human rhinovirus sp.; test: Antiviral activity against rhinoviral 18 serotype in a plaque inhibition assay using monolayers of M-HeLa cells; assay type: functional, organism-based
[26] = system: Human rhinovirus sp.; test: Antiviral activity against rhinoviral 3 serotype in a plaque inhibition assay using monolayers of M-HeLa cells; assay type: functional, organism-based
[27] = system: Human rhinovirus sp.; test: Percent inhibitory activity at 8 uM against rhinoviral 31 serotype in a plaque inhibition assay using monolayers of M-HeLa cells; assay type: functional
[28] = system: Human rhinovirus sp.; test: Percent inhibitory activity at 8 uM against rhinoviral 5 serotype in a plaque inhibition assay using monolayers of M-HeLa cells; assay type: functional

## CN(C)c1nc(C(F)(F)F)nc2c1ncn2Cc1ccc(Cl)c([N+](=O)[O-])c1
[1]
  IC50: 2.1 µM

## CN(C)c1nc(C(F)(F)F)nc2c1ncn2Cc1ccc(C#N)cc1
[1]
  IC50: 0.3 µM

## CN(C)c1nc(C(F)(F)F)nc2c1ncn2Cc1ccccc1N
[1]
  IC50: 1.7 µM

## COc1cc(Cn2cnc3c(N(C)C)nc(C(F)(F)F)nc32)ccc1C
[1]
  IC50: > 1 µM

## COc1ccccc1Cn1cnc2c(N(C)C)nc(C(F)(F)F)nc21
[1]
  IC50: 5.6 µM

## CN(C)c1nc(C(F)(F)F)nc2c1ncn2Cc1ccc(Cl)c(Cl)c1
[2]
  Inhibition: 23%
[1]
  IC50: 0.12 µM
[3]
  IC50: 0.71 µM
[4]
  IC50: 0.73 µM
[5]
  IC50: 3.7 µM
[6]
  IC50: 5.1 µM
[7]
  IC50: 8.1 µM
[8]
  IC50: 13 µM
[9]
  IC50: 0.74 µM
[10]
  IC50: 8.4 µM
[11]
  IC50: > 8 µM
[12]
  Inhibition: 40%
[13]
  IC50: 11 µM
[14]
  IC50: 4.8 µM
[15]
  Inhibition: 29%
[16]
  IC50: 10 µM
[17]
  IC50: 5.4 µM
[18]
  IC50: 6.1 µM
[19]
  IC50: 7.5 µM

## CN(C)c1nc(C(F)(F)F)nc2c1ncn2Cc1ccccc1F
[1]
  IC50: 0.15 µM

## Cc1cc(C)cc(Cn2cnc3c(N(C)C)nc(C(F)(F)F)nc32)c1
[1]
  IC50: > 1.3 µM

## Cc1ccc(Cn2cnc3c(N(C)C)nc(C(F)(F)F)nc32)c(C)c1
[2]
  Inhibition: 13%
[1]
  IC50: 0.11 µM
[3]
  IC50: 0.95 µM
[4]
  IC50: 0.83 µM
[6]
  IC50: 7.2 µM
[7]
  IC50: 6.1 µM
[8]
  IC50: 13 µM
[20]
  Inhibition: 30%
[9]
  IC50: 1.2 µM
[10]
  IC50: 7.6 µM
[11]
  IC50: > 8 µM
[21]
  Inhibition: 36%
[22]
  Inhibition: 33%
[12]
  Inhibition: 40%
[13]
  IC50: > 8 µM
[15]
  Inhibition: 16%
[16]
  IC50: 11 µM
[23]
  Inhibition: 20%
[18]
  IC50: 2.8 µM

## CN(C)c1nc(C(F)(F)F)nc2c1ncn2Cc1ccc(CN)cc1
[1]
  IC50: 0.2 µM

## CN(C)c1nc(C(F)(F)F)nc2c1ncn2Cc1cccc(Br)c1
[1]
  IC50: 0.06 µM

## CN(C)c1nc(C(F)(F)F)nc2c1ncn2Cc1cccc(NC=O)c1
[1]
  IC50: 0.74 µM

## CCCCc1ccc(Cn2cnc3c(N(C)C)nc(C(F)(F)F)nc32)cc1
[1]
  IC50: 0.78 µM

## CN(C)c1cc(Cl)ccc1Cn1cnc2c(N(C)C)nc(C(F)(F)F)nc21
[1]
  IC50: 180 µM

## CN(C)c1nc(C(F)(F)F)nc2c1ncn2Cc1ccc(Cl)cc1N
[1]
  IC50: 0.47 µM

## CN(C)c1nc(C(F)(F)F)nc2c1ncn2Cc1ccc(OCc2ccccc2)cc1
[1]
  IC50: 4.4 µM

## CSc1ccc(Cn2cnc3c(N(C)C)nc(C(F)(F)F)nc32)cc1
[2]
  Inhibition: 35%
[1]
  IC50: 0.07 µM
[3]
  IC50: 1 µM
[4]
  IC50: 0.57 µM
[5]
  IC50: 4.5 µM
[6]
  IC50: 5.2 µM
[24]
  IC50: 2.5 µM
[25]
  IC50: 10 µM
[8]
  IC50: 8.6 µM
[9]
  IC50: 0.81 µM
[10]
  IC50: 3.8 µM
[11]
  IC50: > 8 µM
[12]
  Inhibition: 39%
[13]
  IC50: 7.2 µM
[14]
  IC50: 2.6 µM
[15]
  Inhibition: 35%
[16]
  IC50: 7.6 µM
[18]
  IC50: 4.5 µM
[19]
  IC50: 7.9 µM

## CN(C)c1nc(C(F)(F)F)nc2c1ncn2Cc1ccc(-c2ccccc2)cc1
[1]
  IC50: 14 µM

## CN(C)c1cc(Cn2cnc3c(N(C)C)nc(C(F)(F)F)nc32)ccc1Cl
[1]
  IC50: > 0.2 µM

## COc1cc(Cn2cnc3c(N(C)C)nc(C(F)(F)F)nc32)ccc1Cl
[1]
  IC50: 0.68 µM

## CN(C)c1nc(C(F)(F)F)nc2c1ncn2Cc1cccc(O)c1
[1]
  IC50: 0.95 µM

## CN(C)c1nc(C(F)(F)F)nc2c1ncn2Cc1ccccc1Cl
[2]
  Inhibition: 24%
[1]
  IC50: 0.2 µM
[3]
  IC50: 1.9 µM
[26]
  IC50: 9 µM
[4]
  IC50: 4 µM
[27]
  Inhibition: 38%
[6]
  IC50: 8.1 µM
[7]
  IC50: 13 µM
[20]
  Inhibition: 30%
[9]
  IC50: 4.3 µM
[10]
  IC50: 10 µM
[21]
  Inhibition: 27%
[22]
  Inhibition: 31%
[28]
  Inhibition: 24%
[13]
  IC50: 7.9 µM
[14]
  IC50: 4.2 µM
[15]
  Inhibition: 38%
[16]
  IC50: 8 µM
[18]
  IC50: 9.4 µM

## CN(C)c1nc(C(F)(F)F)nc2c1ncn2Cc1ccc(NC=O)cc1
[1]
  IC50: 0.18 µM
